Assay results from article PMC7692993 (Journal for Immunotherapy of Cancer, 2020).

What was measured:
[1] = biological target: T1, CC chemokine receptor 4 (CCR4) (Homo sapiens, UniProt P51679); assay: inhibition of CCL22-driven chemotaxis of human iTreg in […] serum; format: cell-based
T1 sequence (P51679 1-360): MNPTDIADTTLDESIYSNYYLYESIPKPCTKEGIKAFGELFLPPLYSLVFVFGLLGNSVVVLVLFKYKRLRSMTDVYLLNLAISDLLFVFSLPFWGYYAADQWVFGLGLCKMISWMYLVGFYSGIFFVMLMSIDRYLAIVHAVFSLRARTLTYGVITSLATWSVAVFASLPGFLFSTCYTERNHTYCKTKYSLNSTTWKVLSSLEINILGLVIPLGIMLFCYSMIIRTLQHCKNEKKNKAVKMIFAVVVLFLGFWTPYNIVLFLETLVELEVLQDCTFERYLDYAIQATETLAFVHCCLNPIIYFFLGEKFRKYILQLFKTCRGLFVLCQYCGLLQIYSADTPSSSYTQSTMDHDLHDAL

[2] = biological target: T2, CC chemokine receptor 4 (CCR4) (Mus musculus, UniProt P51680); assay: inhibition of CCL22-driven chemotaxis of mouse iTreg in […] serum; format: cell-based
T2 sequence (P51680 1-360): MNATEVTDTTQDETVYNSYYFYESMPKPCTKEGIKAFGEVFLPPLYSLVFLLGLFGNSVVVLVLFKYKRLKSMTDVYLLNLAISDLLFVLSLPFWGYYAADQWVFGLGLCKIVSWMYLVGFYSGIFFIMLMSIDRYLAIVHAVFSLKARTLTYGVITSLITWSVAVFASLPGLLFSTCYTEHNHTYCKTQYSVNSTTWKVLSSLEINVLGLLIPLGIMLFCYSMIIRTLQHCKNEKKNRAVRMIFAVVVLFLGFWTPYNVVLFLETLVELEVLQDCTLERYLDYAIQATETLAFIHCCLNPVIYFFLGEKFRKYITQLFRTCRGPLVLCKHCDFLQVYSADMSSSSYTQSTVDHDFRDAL

- IC50 [1]: ~40 nM
- IC50 [2]: ~40 nM
SMILES: C[C@H](c1ccc(Cl)cc1Cl)n1nc(C#N)c2ncc(N3CC([C@H]4CCCN(CCO)C4)C3)nc21 [CCR4-351]
